Laboratory results as given in patent publication US20040127577A1 (priority 2002, published 2004).
“And” between values parts separate entries of the source, which are not always exact repeats. Equal entries are not always repeated. Where two headings read alike, the source gives them in different places.

How the values were obtained:
SOD1 transgenic mice [1] = experiment: Running wheel (rotarod) night activity of SOD1 transgenic mice; type: in vivo; parameters: unit not given here
Method: (§1) Another group of 15 mice served as controls.
(§2) The drugs were administered by drinking water starting at 60 days of age. The daily dosages were calculated based on a daily water intake of 6 ml. Fresh solutions were prepared once a week with the total consumed volume measured in order to ensure a constant daily and weekly dose. […] The study was done blindly, meaning that the treatment and the preparation of the drugs were conducted by separate individuals.
(§3) Mice were observed daily (including weekends) and weighed weekly. Motor performance was assessed from 40 days of age using the rotarod apparatus to measure the night activity of the mice from 8 p.m.-8 a.m. (LMTB, Berlin). The activity of the animals was recorded individually by a computerized system and assessed daily, including weekends. For statistical evaluation, the rotarod activity was normalized to the mean activity of each animal from day 40 to day 60.
(§4) Data are expressed as the mean +/−standard error of the mean (SEM). Rotarod testing and weight were compared by analysis of variance (ANOVA). Survival data were analysed by the Mantel-Cox proportional hazard model. Statistical significance was tested by one-way ANOVA followed by post-hoc Student-Newman-Keuls comparison with the SPSS-PC software program (SPSS, Chicago Ill.).

SOD1 transgenic mice [2] = conditions: mouse, in vivo
Method: as §2, §3
The clinical condition of the mice was monitored daily starting at 40 days. The onset of clinical signs was scored by examining the mice for tremors and/or shaking of the limbs, and the position of one or both hind limbs (hanging rather than splaying out) when the mice were suspended in the air by their tail. The age of clinical onset was determined by the age (days) at which loss of splay or tremors of hind limbs were observed. Examining the mice for the loss of righting reflex determined the end stage of the disease. […]

SOD1 transgenic mice [3] = conditions: for Mean Survival: drinking water from 60 days of age, N=15
Method: as §1, §2
The clinical condition of the mice was monitored daily starting at 40 days. The onset of clinical signs was scored by examining the mice for tremors and/or shaking of the limbs, and the position of one or both hind limbs (hanging rather than splaying out) when the mice were suspended in the air by their tail. The age of clinical onset was determined by the age (days) at which loss of splay or tremors of hind limbs were observed. Examining the mice for the loss of righting reflex determined the end stage of the disease. The mice were sacrificed if they could not right themselves within 30 seconds when placed on either side on a flat surface. This decision was made by an independent veterinarian as requested by the animal protocol. The treatment protocol was approved by the Regierungspräsident Tübingen (35/9185.81-3). The treatment and clinical evaluation were conducted by separate individuals, and thus the neurological signs for determining onset and end stage of disease were scored in a blinded manner.
as §4

Compound Nc1nc2ccc(OC(F)(F)F)cc2s1 [riluzole, 2-amino-6-trifluoromethoxy benzothiazole] has a running wheel activity (SOD1 transgenic mice [1]; riluzole 30 mg/kg, Weeks 9-12) of 9729.58, a running wheel activity (SOD1 transgenic mice [1]; riluzole 30 mg/kg, Weeks 13-16) of 7556.57 and a running wheel activity (SOD1 transgenic mice [1]; riluzole 30 mg/kg, Weeks 17-20) of 7033.85. The running wheel activity (SOD1 transgenic mice [1]; riluzole 30 mg/kg, Weeks 21-24) was 4687.05, the running wheel activity (SOD1 transgenic mice [1]; riluzole 30 mg/kg, Weeks 25-28) was 2696.11 and the running wheel activity (SOD1 transgenic mice [1]; riluzole 30 mg/kg, Weeks 29-36) was 1249.13.
With C#CCN[C@@H]1CCc2ccccc21 [rasagiline, R(+)-N-propargyl-1-aminoindan] the “signs of overt toxicity” value (SOD1 transgenic mice [2]) was “did not observe any signs of overt toxicity”, the running wheel activity (SOD1 transgenic mice [1]; rasagiline 0.5 mg/kg, Weeks 9-12) was 10087 and the running wheel activity (SOD1 transgenic mice [1]; rasagiline 0.5 mg/kg, Weeks 13-16) was 9037.14. For the same compound, the running wheel activity (SOD1 transgenic mice [1]; rasagiline 0.5 mg/kg, Weeks 17-20) was 8124.12, the running wheel activity (SOD1 transgenic mice [1]; rasagiline 0.5 mg/kg, Weeks 21-24) was 6070.08 and the running wheel activity (SOD1 transgenic mice [1]; rasagiline 0.5 mg/kg, Weeks 25-28) was 4236.96. For the same compound, the running wheel activity (SOD1 transgenic mice [1]; rasagiline 0.5 mg/kg, Weeks 29-36) was 1196.69, the running wheel activity (SOD1 transgenic mice [1]; rasagiline 2.0 mg/kg, Weeks 9-12) was 11056 and the running wheel activity (SOD1 transgenic mice [1]; rasagiline 2.0 mg/kg, Weeks 13-16) was 9999.44. For the same compound, the running wheel activity (SOD1 transgenic mice [1]; rasagiline 2.0 mg/kg, Weeks 17-20) was 8787.09, the running wheel activity (SOD1 transgenic mice [1]; rasagiline 2.0 mg/kg, Weeks 21-24) was 7873.22 and the running wheel activity (SOD1 transgenic mice [1]; rasagiline 2.0 mg/kg, Weeks 25-28) was 5902.76. For the same compound, the running wheel activity (SOD1 transgenic mice [1]; rasagiline 2.0 mg/kg, Weeks 29-36) was 2147.29, the “Mean Survival” value (SOD1 transgenic mice [3]; rasagiline 0.5 mg/kg per day) was 224 days and 223.8667 days and the “Mean Survival” value (SOD1 transgenic mice [3]; rasagiline 2.0 mg/kg per day) was 239.8667 days and 239.8677 days. The “increase of life span vs controls” value (SOD1 transgenic mice [3]; rasagiline 2.0 mg/kg per day, p<0.001) was 29 days.
